# Results taken from patent US20020013306A1, “TERPYRIDINE-PLATINUM(II) COMPLEXES” (priority 1996, published 2002).
# Values joined by “and” are separate entries in the source; they are usually repeats but may differ in a detail not shown here. Equal values may be shown once. Read-outs that look alike come from different tables or passages of the source.
# Legend:
# T. cruzi (MHOM/BR/00/Y) = assay: Trypanosoma cruzi in mouse peritoneal macrophages; type: cell-based
# Procedure: Trypanosoma cruzi: […] Drug activity was determined from the % of infected macrophages in treated cultures. Nifurtimox was used as the positive control.
# [1] = tested on: CH1 human ovarian carcinoma cell line; assay: 96 h growth inhibition, sulforhodamine B assay, CH1; type: cell-based; settings: 96 h exposure, v = variable (mean)
# [2] = tested on: CH1dox^R human ovarian carcinoma cell line (doxorubicin resistant); assay: 96 h growth inhibition, sulforhodamine B assay, CH1doxR; type: cell-based; settings: for IC50: 96 h exposure, growth inhibition; for RF resistance factor: IC50 resistant line/IC50 parent line: CH1dox^R / CH1
# [3] = tested on: SKOV3 human ovarian carcinoma cell line; assay: 96 h growth inhibition, sulforhodamine B assay, SKOV3; type: cell-based; settings: 96 h exposure, v = variable (mean)
# [4] = tested on: CH1cis^R human ovarian carcinoma cell line (cisplatin resistant); assay: 96 h growth inhibition, sulforhodamine B assay, CH1cisR; type: cell-based; settings: for IC50: 96 h exposure, growth inhibition, v = variable (mean); for RF resistance factor: IC50 resistant line/IC50 parent line: CH1cis^R / CH1
# [5] = tested on: A2780cis^R human ovarian carcinoma cell line (cisplatin resistant); assay: 96 h growth inhibition, sulforhodamine B assay, A2780cisR; type: cell-based; settings: for IC50: 96 h exposure, growth inhibition, v = variable (mean)
# [6] = tested on: T. brucei (S427) bloodstream trypomastigotes; assay: Trypanosoma brucei bloodstream trypomastigote culture; type: cell-based
# [7] = tested on: A2780 human ovarian carcinoma cell line; assay: 96 h growth inhibition, sulforhodamine B assay, A2780; type: cell-based; settings: 96 h exposure, v = variable (mean)
# [8] = tested on: P falciparum (chloroquin resistant strain K1); assay: In vitro antimalarial activity, chloroquine resistant K1; settings: for % Inhibition, MQ, K1 P. falciparum: duplicates
# Procedure: Plasmodium falciparum: P falciparum (chloroquin resistant strain K1) was cultured at 37° C. in a 5% suspension of infected so erythrocytes (group A Rh^+) in complete medium as described by E L Elueze, S L Croft and D C Warhurst, J Antimicrobial Chemotherapy, 1996, 37, 511-518. The in vitro antimalarial activity of compounds were likewise determined according to their protocol. Mefloquin was used as the positive control.”
Compound,IC50 [1] [µM],IC50 [3] [µM],IC50 [4] [µM],IC50 [5] [µM],"% Inhibition, Trypanosoma brucei ([6]; 1 μM) [%]","% Inhibition, Trypanosoma brucei ([6]; 3 μM) [%]","% Inhibition, Trypanosoma brucei ([6]; 10 μM) [%]","% Inhibition, Trypanosoma brucei ([6]; 30 μM) [%]",IC50 [7] [µM],"% Inhibition, Trypanosoma brucei ([6]; 0.1 μM) [%]","% Inhibition, Trypanosoma brucei ([6]; 0.3 μM) [%]",also measured
F[B-](F)(F)F.F[B-](F)(F)F.Fc1ccc[n+]([Pt-2]23[n+]4ccccc4-c4cccc([n+]42)-c2cccc[n+]23)c1 [Compound A5],17,> 100,17,> 100,100,100,100,100,19.5,,,"% Inhibition, Trypanosoma cruzi (T. cruzi (MHOM/BR/00/Y); 1 μM): 2.0%; % Inhibition, Trypanosoma cruzi (T. cruzi (MHOM/BR/00/Y); 3 μM): 6.5%; % Inhibition, Trypanosoma cruzi (T. cruzi (MHOM/BR/00/Y); 10 μM): 43.8%; IC50 [2]: 6.1 µM; RF resistance factor: IC50 resistant line/IC50 parent line [2]: 0.3; RF resistance factor: IC50 resistant line/IC50 parent line [4]: 1"
F[B-](F)(F)F.F[B-](F)(F)F.OCc1cc[n+]([Pt-2]23[n+]4ccccc4-c4cccc([n+]42)-c2cccc[n+]23)cc1 [Compound A9],14,17,12.5,92,100,100,100,100,40,32.5,100,IC50 [2]: 5 µM; RF resistance factor: IC50 resistant line/IC50 parent line [2]: 0.3; RF resistance factor: IC50 resistant line/IC50 parent line [4]: 0.9; RF resistance factor: IC50 resistant line/IC50 parent line ([5]; A2780cis^R / A2780): 2.3
"Brc1ccc(-c2cc(-c3ccccn3)nc(-c3ccccn3)c2)cc1.F[B-](F)(F)F.F[B-](F)(F)F.N.[Pt+2] [Compound Q12, Ammonio 4′-(4-bromophenyl)-2,2′:6′,2″-terpyridine platinum II tetrafluoroborate]",,,,,100,100,100,100,,100,100,
"OC(c1cc(C(F)(F)F)nc2c(C(F)(F)F)cccc12)C1CCCCN1 (centres unmarked) [MQ, Mefloquin, reference compound]",,,,,,,,,,,,"% Inhibition, MQ, K1 P. falciparum ([8]; Concn. MQ 0.015625 μM): 0%; % Inhibition, MQ, K1 P. falciparum ([8]; Concn. MQ 0.0626 μM): 77.5% and 56.9%; % Inhibition, MQ, K1 P. falciparum ([8]; Concn. MQ 0.5 μM): 96.4% and 95.3%; % Inhibition, MQ, K1 P. falciparum ([8]; Concn. MQ 1 μM): 94.9% and 91.6%; % Inhibition, MQ, K1 P. falciparum ([8]; Concn. MQ 2 μM): 96.3% and 94.7%; % Inhibition, MQ, K1 P. falciparum ([8]; Concn. MQ 025 μM): 98.0% and 97.2%; % Inhibition, MQ, K1 P. falciparum ([8]; Concn. MQ 003125 μM): 0.5% and 0%; % Inhibition, MQ, K1 P. falciparum ([8]; Concn. MQ): 93.6% and 94.8%; IC50 ([8]; read-out: IC50 (avg), K1 P. falciparum, average of duplicates): 60 nM; IC50 ([8]; read-out: IC50, K1 P. falciparum, each duplicate (1),(2)): 50 nM and 60 nM"
"Cc1ccncc1.F[B-](F)(F)F.F[B-](F)(F)F.OCCNc1cc(-c2ccccn2)nc(-c2ccccn2)c1.[Pt+2] [U, (4-Picoline)(4′-(N-2-Hydroxyethyl)amino-2,2′:6′,2″-Terpyridine) Platinum (II) Tetrafluoroborate]",,,,,0,68.4,100,100,,0,0,"% Inhibition, Trypanosoma cruzi (T. cruzi (MHOM/BR/00/Y); 1 μM): 0%; % Inhibition, Trypanosoma cruzi (T. cruzi (MHOM/BR/00/Y); 3 μM): 0%; % Inhibition, Trypanosoma cruzi (T. cruzi (MHOM/BR/00/Y); 10 μM): 0%; % Inhibition, Trypanosoma cruzi (T. cruzi (MHOM/BR/00/Y); 30 μM): 18.0%"
"N.N.[Cl][Pt][Cl] [cisplatin, cis[Pt(NH3)2Cl2], reference compound]",0.4,2.25,1.2,8.8,,,,,0.53,,,
"CC1CS(=O)(=O)CCN1/N=C/c1ccc([N+](=O)[O-])o1 (centres unmarked) [nifurtimox, Nifurtimox, reference compound]",,,,,,,,,,,,"EC50 (T. cruzi (MHOM/BR/00/Y); Trypanosoma cruzi, Peritoneal macrophage, read-out: ED50 against Trypanosoma cruzi): 3000 nM"
"Ammonio 4′-chloro-2,2′:6′,2″-terpyridine platinum II tetrafluoroborate [Compound I12]",,,,,100,100,100,100,,0,0,
